US8501713B2, “Drug combinations for the treatment of duchenne muscular dystrophy” (Summit Corporation PLC, priority 2007, dated 2013)

System: Utrophin A promoter linked to a luciferase reporter gene
Experiment: Luciferase reporter assay (murine H2K cells)
Assay type: cell-based
Details: luciferase reporter assay in murine H2K cells; classified relative to control
Method in brief: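 Immortalized mdx mouse H2K myoblasts stably carrying a ~5 kb utrophin A promoter–luciferase construct, kept at 33° C, 10% CO2. After 24 hrs plating, compound added at 10 μM final for 48 hrs; luciferase light output read after in-situ lysis.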

SMILES | Activity
Cc1ccc(C)c(OCc2nc3ccccc3[nH]2)c1 [Example 548] | + (Up to 200% relative to control)
CCOc1ccc(-c2nc3cc(N)ccc3o2)cc1 [Example 549] | + (Up to 200% relative to control)
Nc1ccc(O)c(-c2nc3cc(N)ccc3s2)c1 [Example 550] | + (Up to 200% relative to control)
CCc1ccc2oc(-c3cc(N)ccc3O)nc2c1 [Example 551] | + (Up to 200% relative to control)
c1ccc(NNc2nc3ccccc3s2)cc1 [Example 552] | + (Up to 200% relative to control)
CCc1ccc2oc(-c3ccc(N)cc3)nc2c1 [Example 553] | ++++ (Above 401% relative to control)
Cc1ccc2[nH]c(-c3ccccc3N)nc2c1 [Example 554] | +++ (Between 301% and 400% relative to control)
CCOc1ccc2nc(NC(=O)c3ccccc3)sc2c1 [Example 555] | + (Up to 200% relative to control)
CC(=O)Nc1ccc(-c2nc3cc(Cl)c(NC(C)=O)cc3[nH]2)cc1 [Example 556] | + (Up to 200% relative to control)
Nc1ccc(Oc2ccc(-c3nc4ccccc4[nH]3)cc2)cc1 [Example 557] | ++++ (Above 401% relative to control)
c1ccc(-c2ccc(-c3nc4ccccc4[nH]3)cc2)cc1 [Example 558] | + (Up to 200% relative to control)
Cc1cc2nc(-c3cc(N)ccc3O)oc2cc1C [Example 559] | +++ (Between 301% and 400% relative to control)
Nc1ccc2[nH]c(-c3ccc(Cl)cc3)nc2c1 [Example 560] | +++ (Between 301% and 400% relative to control)
c1csc(-c2nc3cc4ccccc4cc3[nH]2)c1 [Example 561] | +++ (Between 301% and 400% relative to control)
O=C(Nc1ccc(-c2nc3ccccc3[nH]2)cc1)c1ccco1 [Example 562] | +++ (Between 301% and 400% relative to control)
CCSc1nc2ccc(N)cc2s1 [Example 563] | ++ (Between 201% and 300% relative to control)
Cc1ccc2nc(-c3ccc(NC(=O)C(C)C)cc3)oc2c1 [Example 564] | + (Up to 200% relative to control)
CC(C)c1ccc2oc(-c3ccc(N)cc3O)nc2c1 [Example 565] | +++ (Between 301% and 400% relative to control)
Cc1c(N)cccc1-c1nc2cc(Cl)ccc2o1 [Example 566] | + (Up to 200% relative to control)
Cc1ccc(C(=O)Nc2nc3ccccc3s2)c(Cl)c1 [Example 567] | + (Up to 200% relative to control)
Cc1ccc(-c2nc3ccccc3[nH]2)cc1NC(=O)C(F)(F)F [Example 568] | +++ (Between 301% and 400% relative to control)
Nc1ccc2oc(-c3ccccc3F)nc2c1 [Example 569] | +++ (Between 301% and 400% relative to control)
CCCCc1nc2cc(S(=O)(=O)CC)ccc2o1 [Example 570] | + (Up to 200% relative to control)
CCCc1nc2cc(S(=O)(=O)CC)ccc2o1 [Example 571] | + (Up to 200% relative to control)
CCc1nc2cc(S(=O)(=O)CC)ccc2o1 [Example 572] | + (Up to 200% relative to control)
CCS(=O)(=O)c1ccc2ocnc2c1 [Example 573] | + (Up to 200% relative to control)

SMILES | Activity
CCS(=O)(=O)c1ccc2oc(S)nc2c1 [Example 574] | + (Up to 200% relative to control)
CC(=O)Nc1cccc(-c2ccc3oc(-c4ccc(Cl)cc4)nc3c2)c1 [Example 575] | ++++ (Above 401% relative to control)
CCNC(=O)Nc1ccc2[nH]c(C(C)(C)C)cc2c1 [Example 576] | + (Up to 200% relative to control)
Nc1ccc2oc(-c3cccc4ccccc34)nc2c1 [Example 577] | + (Up to 200% relative to control)
CCCS(=O)(=O)c1ccc2oc(-c3ccc(Cl)cc3)nc2c1 [Example 578] | + (Up to 200% relative to control)
Oc1ccc2nc(-c3ccc(Cl)cc3)oc2c1 [Example 579] | ++++ (Above 401% relative to control)
Cc1ccc2[nH]c(-c3ccc(NC(=O)c4ccco4)cc3)nc2c1 [Example 580] | +++ (Between 301% and 400% relative to control)
O=C(c1ccccc1)c1ccc2nc(-c3ccccc3)[nH]c2c1 [Example 581] | + (Up to 200% relative to control)
COc1ccc(-c2nc3ccccc3s2)cc1 [Example 582] | ++++ (Above 401% relative to control)
COc1ccc(-c2nc3ccccc3o2)cc1 [Example 583] | +++ (Between 301% and 400% relative to control)
COc1ccc(-c2nc3ccc([N+](=O)[O-])cc3o2)cc1 [Example 584] | +++ (Between 301% and 400% relative to control)
O=C(Nc1ccc(-c2nc3ccccc3[nH]2)cc1)c1cccs1 [Example 585] | ++++ (Above 401% relative to control)
COc1ccc(-c2nc3cc([N+](=O)[O-])ccc3[nH]2)cc1 [Example 586] | ++ (Between 201% and 300% relative to control)
O=C(Nc1ccc(-c2nc3ccccc3[nH]2)cc1)C1CCCO1 (stereo not drawn) [Example 587] | +++ (Between 301% and 400% relative to control)
Cc1ccc(-c2nc3ccccc3n2C)cc1 [Example 588] | +++ (Between 301% and 400% relative to control)
CC(=O)Nc1ccc(-c2nc3ccccc3o2)cc1 [Example 589] | +++ (Between 301% and 400% relative to control)
Cc1cc(C)c2nc(-c3ccc(N)cc3)oc2c1 [Example 590] | ++++ (Above 401% relative to control)
CC(=O)Nc1ccc(-c2nc3ccccc3[nH]2)cc1 [Example 591] | +++ (Between 301% and 400% relative to control)
Nc1cc(-c2nc3ccccc3s2)ccc1Cl [Example 592] | ++++ (Above 401% relative to control)
CC(C)(C)c1ccc2oc(-c3ccc(N)cc3)nc2c1 [Example 593] | +++ (Between 301% and 400% relative to control)
Oc1cccc(-c2nc3ccccc3s2)c1 [Example 594] | ++++ (Above 401% relative to control)
Clc1ccc(-c2nc3ccccc3s2)c(Cl)c1 [Example 595] | ++ (Between 201% and 300% relative to control)
COc1ccc(-c2nc3ccccc3s2)cc1O [Example 596] | ++++ (Above 401% relative to control)
COc1ccc(-c2nc3ccccc3s2)cc1N [Example 597] | +++ (Between 301% and 400% relative to control)
Nc1ccc2nc(-c3cccc(Cl)c3)oc2c1 [Example 598] | +++ (Between 301% and 400% relative to control)
Cc1cc(-c2nc3ccccc3s2)ccc1[N+](=O)[O-] [Example 599] | ++++ (Above 401% relative to control)

SMILES | Activity
COc1cccc(-c2nc3ccccc3[nH]2)c1 [Example 600] | ++ (Between 201% and 300% relative to control)
Nc1ccc(-c2nc3ccccc3s2)cc1 [Example 601] | +++ (Between 301% and 400% relative to control)
Nc1cccc(-c2nc3ccccc3s2)c1 [Example 602] | +++ (Between 301% and 400% relative to control)
Cc1ccc(-c2nc3cc(N)ccc3o2)cc1C [Example 603] | +++ (Between 301% and 400% relative to control)
O=[N+]([O-])c1ccc2nc(-c3ccccc3)[nH]c2c1 [Example 604] | +++ (Between 301% and 400% relative to control)
Cc1ccc2[nH]c(-c3ccc([N+](=O)[O-])cc3)nc2c1 [Example 605] | +++ (Between 301% and 400% relative to control)
COc1cccc(-c2nc3ccccc3s2)c1 [Example 606] | +++ (Between 301% and 400% relative to control)
Cc1cc(-c2nc3ccccc3o2)ccc1[N+](=O)[O-] [Example 607] | ++++ (Above 401% relative to control)
c1ccc2sc(-c3ccc4c(c3)OCO4)nc2c1 [Example 608] | ++++ (Above 401% relative to control)
CCC(C)c1ccc2oc(-c3ccc(N)cc3)nc2c1 (stereo not drawn) [Example 609] | +++ (Between 301% and 400% relative to control)
Cc1cc2nc(-c3ccc(N)cc3O)oc2cc1C [Example 610] | ++++ (Above 401% relative to control)
Cc1ccc2nc(-c3ccc(C(F)(F)F)cc3)oc2c1 [Example 611] | +++ (Between 301% and 400% relative to control)
Cc1ccc2oc(-c3cccs3)nc2c1 [Example 612] | ++ (Between 201% and 300% relative to control)
Cc1ccc(-c2nc3ccccc3[nH]2)cc1 [Example 613] | +++ (Between 301% and 400% relative to control)
O=C(COc1ccc2c(c1)OCO2)Nc1nc2ccccc2s1 [Example 614] | + (Up to 200% relative to control)
CCn1c(C)nc2cc(C(=O)Nc3ccccc3)ccc21 [Example 615] | ++++ (Above 401% relative to control)
O=C(Nc1nc2ccccc2s1)c1ccccc1Br [Example 616] | ++++ (Above 401% relative to control)
O=C(CSc1nc2ccccc2s1)N1CCCCC1 [Example 617] | ++++ (Above 401% relative to control)
O=C(Nc1ccc2c(c1)OCO2)c1sc2ccccc2c1Cl [Example 618] | ++++ (Above 401% relative to control)
COc1ccc(-c2nc3ccccc3o2)cc1N [Example 619] | ++++ (Above 401% relative to control)
Cc1ccc(-c2nc3ccccc3[nH]2)cc1N [Example 620] | ++++ (Above 401% relative to control)
O=C(Nc1ccccc1F)c1sc2ccccc2c1Cl [Example 621] | ++++ (Above 401% relative to control)
Nc1cccc(-c2nc3cc(Cl)ccc3o2)c1 [Example 622] | ++++ (Above 401% relative to control)
Cc1cc2nc(-c3cccc(NC(=O)c4ccco4)c3)oc2cc1C [Example 623] | ++++ (Above 401% relative to control)
CCc1ccc2oc(-c3ccc(C)c(N)c3)nc2c1 [Example 625] | ++++ (Above 401% relative to control)
O=C(Nc1nc2ccccc2s1)c1cc2ccccc2o1 [Example 626] | ++++ (Above 401% relative to control)
